Converted amounts (≈) assume the structure as drawn.
How the values were obtained:
[1] = system: S. aureus; conditions: cited from earlier work
[2] = system: B. anthracis; conditions: cited from earlier work
[3] = system: E. coli; conditions: cited from earlier work
[4] = system: F. tularensis; assay: microbe, parasite or virus in culture; assay type: cell-based; conditions: Francisella tularensis
[5] = system: E. coli TolC-; assay: microbe, parasite or virus in culture; assay type: cell-based; conditions: Escherichia coli

Structure (SMILES) | MIC [1] [µg/mL] | MIC [2] [µg/mL] | MIC [3] [µg/mL] | MIC [4] [µg/mL] | MBC [5] [µg/mL]
Cc1cc2ncn(Cc3ccc(Cl)c(Cl)c3)c2cc1C [Compound 1] | 25 (≈ 81.9 µM) | 9.4 (≈ 30.8 µM) | >200 |  | 
CC(c1ccc(Cl)c(Cl)c1)n1cnc2cc3c(cc21)CCC3 (stereo not drawn) [Compound 3] |  |  |  | 3.1 to 6.3 (≈ 9.36 to 19 µM) | 
CC(c1ccc(Cl)c(Cl)c1)n1cnc2cc3c(cc21)CCCC3 (stereo not drawn) [Compound 4] |  |  |  | 3.1 to 6.3 (≈ 8.98 to 18.2 µM) | > 25

From article PMC4348352 (Bioorganic & medicinal chemistry letters, 2015)
